From patent US20160144021A1, “Vaccine Composition And Method Of Use” (MEDIMMUNE, LLC, priority 2013, published 2016)

Tests used:
Assay type in all cases: in vivo
[1] = tested on: RSV sF; assay: Serum anti-F IgG and isotype ELISA, naive Sprague Dawley rats; conditions: Day 42
Method: (§1) In a subsequent study, the immunogenicity and protection following a prime-boost regimen of RSV-SF was evaluated. 40 naive female Sprague Dawley rats were divided into designated vaccine cohorts of 5-6 animals per cohort. Briefly, test groups were given RSV sF (10 μg or 100 μg per animal) without adjuvant or RSV sF (10 μg or 100 μg per animal) with GLA-SE (2.5 μg in 2% SE). Negative control groups were dosed with placebo (PBS buffer) or adjuvant GLA-SE (2.5 μg/2%) without RSV sF. […] Groups 1-6 were inoculated IM with 500 μL of designated vaccine article on Day 0 and Day 22, while Group 7 was inoculated IN with 200 μL of RSV A2 virus on day 0 only. […] Rats were euthanized at 4 days post challenge on Day 46, the day of peak viral replication determined from Study 1. Lungs (excluding 1 lobe which was formalin-fixed) and noses were homogenized and quantified for viral titers.
Serological responses to vaccination were evaluated at 6 hours post immunization, D22, and D42 for all animals and at Day 14 for a subset of 3 animals per group. […] Serum obtained 6 hours post-immunization was evaluated for cytokine titers by multiplexed ELISA. Serum from Days 14, 22, and 42 were measured for total anti-F IgG ELISA endpoint dilution titers. Day 42 serum was evaluated for the specific contribution of IgG1, IgG2a, and IgG2b anti-F responses by ELISA endpoint dilution titers. […]

[2] = tested on: RSV A2; assay: Lung and nose RSV titers after challenge, vaccinated Sprague Dawley rats; conditions: 10 or 100 μg RSV sF, 4 days post challenge
Method: as §1

[3] = tested on: RSV-F MHC I and MHC II restricted peptides; assay: IFNγ ELISPOT of splenocytes, naive BALB/c mice; conditions: Day 32, 4 days post challenge, MHC I F peptide
[4] = tested on: RSV A2; assay: RSV microneutralization of sera, highly (2x) RSV seropositive BALB/c mice; conditions: very small amounts of antigen
Method: (§2) One hundred three female BALB/c mice (Charles River), ages 6-8 weeks old, were divided into 13 groups. Group 1 had 7 mice and groups 2 through 13 had 8 mice. Following anaesthetization groups 1 through 12 were dosed with 1×10^6 plaque forming units (PFU) in 100 μL of live RSV via an intranasal (IN) route on Day 0 and Day 35. Group 13 was not exposed to RSV. On Day 56, groups 1 through 11 were immunized with placebo (PBS) or vaccine article via an intramuscular (IM) route following anesthesia with isoflurane. The vaccine articles were formulated in a total of 100 μL with 50 μL given in each hind limb. Group 12 was anesthetized with isoflurane and immunized with 1×10^6 PFU in 100 μL of live RSV via an IN route. […] Sera were obtained from retro orbital blood collection at study days 0, 28, 56 70 and 84, separated from whole blood and stored at −20° C. until evaluated. Spleens from 4 animals in each group were harvested for T cell assays on Day 67, 11 days post immunization, or at day 88, 4 days post challenge. Lung cytokines quantified at 4 days after challenge in individual lung homogenates by luminex assay (Milipore).

[5] = tested on: F-derived CD8 peptide (KYKNAVTEL); assay: CD8 IFNγ ELISPOT of splenocytes, 1x RSV seropositive BALB/c mice
Method: Systemic cellular immune responses to vaccination were evaluated in representative animals at Day 10 post vaccination. Additional representative animals were recalled with a viral challenge at Day 69 and evaluated for long-term cellular immune responses at Day 73, 4 days post viral challenge. For each of the groups, 3-5 individual splenocyte samples were prepared. CD4 T-cell readouts were assessed by multiplexed cytokine analysis of supernatant levels of a panel of secreted cytokines (including IFNγ, IL-5, IL-10, IL-13, and IL-17) following a 72-hour restimulation period with RSV sF. CD8 T-cell readouts were assessed by 2 methods: ELISPOT counts of IFNγ-secreting cells following a 36-48 hour restimulation period with an F-derived CD8 peptide ([…] aa 85-93) (SEQ ID NO: 12) and intracellular staining and quantification of the percentage of F-specific polyfunctional (IFNγ+ TNFα+IL-2+) CD8 T cells following a 5-hour restimulation period with the F-derived CD8 peptide.

[6] = tested on: RSV A2; assay: RSV A2-GFP microneutralization of sera, 1x RSV seropositive BALB/c mice
Method: Naïve female BALB/c mice were divided into designated vaccine cohorts of 8-9 mice each and dosed at Day 0. […] Successful seroconversion was confirmed by F-specific ELISA endpoint titers on Day 0. Groups of 9 mice were inoculated intramuscularly (IM) with the vaccine formulations at Day 0. 3 mice per group were evaluated for cellular immune responses at 10 days post […], while the remaining 5-6 animals per group were followed for serum antibody responses through Day 73.
Serology readouts were made at Days 0, 14, 28, 42, 56, and 73 for each group. Animals were lightly anesthetized with isoflurane and bled intraorbitally. Serum was separated and stored at −20° C. and thawed for testing. Total anti-F IgG were measured at each timepoint, with anti-F IgG1 and anti-F IgG2a ELISA endpoint dilution titers measured at Day 0 and Day 42. RSV neutralization titer was determined by a RSV A2-GFP microneutralization assay. The polyclonal nature of the anti-F IgG response was evaluated on Day 42 by competition ELISA with site-specific monoclonal antibodies to RSV-F. Anti-F IgA endpoint dilution titers were measured at Day 14 for each group.

[7] = tested on: RSV sF; assay: Serum RSV F-specific IgG, IgG1, IgG2a ELISA, highly seropositive BALB/c mice; conditions: day 84
Method: as §2

[8] = tested on: RSV A2; assay: RSV A2-GFP neutralizing Ab titers of sera, cynomolgus monkeys
Source text: At Day 169, 5 months post vaccination, the booster vaccination was given.

For “RSV sF: RSV soluble F protein, amino acids 1-524 of the RSV A2 F sequence lacking the transmembrane domain, given without adjuvant”, the F-specific isotype balance [1] was “higher IgG1 titers than IgG2b titers”, the “animals per group with titers below the limit of detection” value [2] was 1-2 and the “F-specific CD8 IFNγ ELISPOT” value [3] was ~30 spot forming units (SFU)/million cells. The “neutralization level lower than that of the highest adjuvanted RSV sF dose of 50 μg” value [4] was “approximately 6 fold”, the “F-specific CD8 IFNγ ELISPOT response” value ([5]; Day 10 post vaccination, highest dose (10 μg) RSV sF) was 224 SFU/million and the “F-specific CD8 IFNγ ELISPOT response (mean)” value ([5]; Day 10 post vaccination, range across RSV sF doses 0.4-10 μg) was 72-224 SFU/million. For the same substance, the “recall F-specific CD8 IFNγ ELISPOT response (means)” value ([5]; Day 73, 4 days post RSV challenge, range across RSV sF doses) was 62-243 SFU/million, the “mean RSV neutralizing titers” value ([6]; Day 14, dose 0.4 μg RSV sF assumed from order) was 8.32 log2 and the “mean RSV neutralizing titers” value ([6]; Day 14, dose 10 μg RSV sF assumed from order) was 8.66 log2. The “mean RSV neutralizing titers” value ([6]; Day 14, second value, dose 2 μg RSV sF assumed from order) was 7.82 log2, the “Th bias from RSV sF-specific IgG1 and IgG2a serum titers” value [7] was “maintained the Th1 bias” and the “animals with 4-fold boost in neutralizing titers from Day −7 levels” value ([8]; Day 42) was 1/4. For the same substance, the “geometric mean RSV neutralizing Ab titer” value ([8]; Day 42) was 3.52±1.14 log 2, the “RSV neutralizing Ab titers” value ([8]; Day 169) was 2.97 log 2 and the “geomean neutralizing Ab titers” value ([8]; Day 183, 14 days following the third immunization) was 4.46±1.79 log 2.
